From article PMC11885754, “Engineered phenylalanine hydroxylase coupled with an effective cofactor synthesis and regeneration system for high-yield production of 5-hydroxytryptophan” (Bioresources and Bioprocessing, 2025) come the findings set out here.

The target in the test is T1, XcPAH (Xanthomonas campestris, UniProt Q8PE27).
T1 construct: gene pah; full length 296 aa, synthesized gene in pET30a (BamHI/XhoI) co-expressed with CvPCD and EcFolM in E. coli BL21(DE3)-derived strain TRP1
T1 sequence (Q8PE27 1-296): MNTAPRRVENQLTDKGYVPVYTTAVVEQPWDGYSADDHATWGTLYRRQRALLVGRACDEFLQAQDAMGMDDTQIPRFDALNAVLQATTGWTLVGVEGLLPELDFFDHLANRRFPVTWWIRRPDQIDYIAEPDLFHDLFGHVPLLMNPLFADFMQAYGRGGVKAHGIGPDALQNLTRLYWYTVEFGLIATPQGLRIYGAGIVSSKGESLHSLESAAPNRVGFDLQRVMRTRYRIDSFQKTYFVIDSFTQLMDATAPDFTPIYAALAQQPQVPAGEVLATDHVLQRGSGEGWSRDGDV
The test can be described thus: whole-cell conversion of L-Phe to L-Tyr, HPLC. Format: cell-based. Particulars: E. coli TRP1 cells, 10 mM L-Phe, endogenous MH4 with CvPCD-EcFolM regeneration, 25 °C, 24 h, pH about 7.0.

Each structure is given as a SMILES string.

Regarding `N[C@@H](Cc1ccccc1)C(=O)O` [L-Phe], the “whole-cell conversion of L-Phe to L-Tyr, HPLC” value is “(TRP1-XC1 and TRP1-CT1) were capable of converting L-Phe into L-Tyr”.
